doi:10.1101/2025.09.30.679521v1, “Crystallographic characterisation and development of bi-substrate inhibitors of coronavirus nsp14 methyltransferase” (biorxiv, 2025)
Values after ≈ are worked out from the molar mass of the structure shown. Read-outs that look alike come from different tables or passages of the source.

Tests used:
SARS-CoV-2 nsp14 = target: T1, SARS-CoV-2 nsp14 (Severe acute respiratory syndrome coronavirus 2, UniProt P0DTD1); assay: RapidFire MS methyltransferase assay; type: biochemical
T1 construct: gene rep
Text: RapidFire MS methyltransferase assay on SARS-CoV-2 nsp14

HCoV-NL63 nsp14 = HCoV-NL63 nsp14 (Human coronavirus NL63, UniProt P0C6X5); assay: RapidFire MS methyltransferase assay; type: biochemical
Text: RapidFire MS methyltransferase assay on HCoV-NL63 nsp14

in vitro [1] = assay: in vitro; design: mouse liver microsomal stability; details: liver microsomes; Mouse liver microsomes; read-out: Mouse liver Mic T1/2 / min
Text: We initiated our structure-activity relationship (SAR) studies by investigating various replacements for the benzothiazole group, compounds 2-17, Table 1. […] Relatively flat SAR is observed across this subset of compounds, indeed a 6,5 or 6,6 aromatic system with the appropriate connectivity as compound 1 display relatively similar potencies. […] In general, the mouse microsomal clearance was rather low for this set of molecules, with no significant instabilities introduced, with perhaps the exception of compound 4. With no significant advantages in either potency or mouse microsomal clearance (Table S2) identified for this subset, the benzothiazole was taken forward into subsequent SAR studies. Table 2. Enzymatic inhibition against SARS-CoV-2 nsp14, human RNMT, CHI-logD and mouse microsomal stability.

HCoV-229E nsp14 = target: T2, HCoV-229E nsp14 (Human coronavirus 229E, UniProt P0C6X1); assay: RapidFire MS methyltransferase assay; type: biochemical
T2 construct: gene rep
Text: RapidFire MS methyltransferase assay on HCoV-229E nsp14

human RNMT [2] = target: T3, human RNMT (Homo sapiens, UniProt O43148); assay: RNMT methyltransferase assay (Gray et al.); type: biochemical
Text: RNMT methyltransferase assay (Gray et al.) on human RNMT

physchem [3] = assay: physchem
physchem [4] = assay: physchem; remark: listed apart in the source
human RNMT [5] = target: T3, human RNMT; assay: biochemical; design: human RNMT methyltransferase inhibition
physchem [6] = assay: physchem; remark: listed apart in the source
MERS-CoV nsp14 = target: T4, MERS-CoV nsp14 (Betacoronavirus England 1, UniProt K9N7C7); assay: biochemical
T4 construct: gene rep

SARS-CoV-2 [7] = assay: microbe, parasite or virus in culture; design: species or system Vero E6; antiviral cytopathic effect assay with SARS-CoV-2 in Vero E6 cells; details: Severe acute respiratory syndrome coronavirus 2, Vero C1008; read-out: CPE assay EC50 /
in vitro [8] = assay: in vitro; design: cytotoxicity alongside the cytopathic effect assay in Vero E6 cells; details: african green monkey, vero e6 cells; read-out: CPE assay CC50 /
Text: This may be due to the increased rigidity of the alkene linkage and a lower entropic penalty upon binding. As a matched pair to the previously reported compounds 32 and 34, we selected potent and stable compound 33 and 40, with the same change of adenosine base, Base A, to Base B and measure the antiviral activity. […] One potential reason for this disparity may be attributed to the differing experimental conditions used in the two assays and requires further investigation. […] Therefore, consistent with the body of the literature, we observed no significant antiviral activity against SARS-CoV-2 for this class of compounds. We hypothesise that as the compounds bind in both the SAM and the RNA pocket of nsp14 and are therefore competitive with both substrates, in the cellular context there is a significant competition with intracellular SAM/SAH and the viral RNA, which is likely present at a higher concentration than used in the biochemical assay. The concentration of SAM used in the SARS-CoV-2 nsp14 assay is 1.0 µM and although measurements of SAM or SAH concentrations in Vero E6 cells haven’t been reported, others have reported intracellular concentrations of SAM of 354 µM in other cell lines.[30] The concentration of the viral RNA substrate in cellulo and increased effective concentrations from the proximity of other nsp proteins involved in viral RNA production may also play a role that is further not captured in the bioche Table 5. Selected compounds with cellular potency. The apparent EC50 values in the cytopathic effect assay are shown, along with the toxicity effect CC50

physchem [9] = assay: physchem; design: solubility
Text: Table 5. Selected compounds with cellular potency. The apparent EC50 values in the cytopathic effect assay are shown, along with the toxicity effect CC50

in vitro [10] = assay: in vitro; design: MDCK permeability; details: dog, MDCK
SARS-CoV-2 [11] = assay: microbe, parasite or virus in culture; design: species or system Vero E6; antiviral cytopathic effect assay with SARS-CoV-2 in Vero E6 cells; details: Severe acute respiratory syndrome coronavirus 2, Vero C1008; read-out: CPE assay EC50 /; remark: listed apart in the source
in vitro [12] = assay: in vitro; design: MDCK permeability; details: dog, MDCK; remark: listed apart in the source
[13] = SAM and RNA cap substrate at KM (SAM 1.0 µM), read-out: IC50

T3 sequence (O43148 whole entry): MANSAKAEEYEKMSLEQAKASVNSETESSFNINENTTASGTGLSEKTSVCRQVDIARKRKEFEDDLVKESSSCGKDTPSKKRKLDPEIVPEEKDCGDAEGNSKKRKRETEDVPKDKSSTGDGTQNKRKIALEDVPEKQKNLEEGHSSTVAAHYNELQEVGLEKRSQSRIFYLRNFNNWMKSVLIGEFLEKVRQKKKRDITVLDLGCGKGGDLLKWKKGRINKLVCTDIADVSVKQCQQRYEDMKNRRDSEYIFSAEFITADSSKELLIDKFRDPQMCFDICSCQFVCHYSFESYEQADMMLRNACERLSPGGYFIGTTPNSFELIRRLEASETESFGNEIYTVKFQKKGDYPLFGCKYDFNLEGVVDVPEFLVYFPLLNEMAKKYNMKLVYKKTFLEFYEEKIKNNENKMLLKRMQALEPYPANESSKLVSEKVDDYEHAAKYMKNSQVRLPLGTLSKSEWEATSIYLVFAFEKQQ
T2 sequence (P0C6X1 5593-6110): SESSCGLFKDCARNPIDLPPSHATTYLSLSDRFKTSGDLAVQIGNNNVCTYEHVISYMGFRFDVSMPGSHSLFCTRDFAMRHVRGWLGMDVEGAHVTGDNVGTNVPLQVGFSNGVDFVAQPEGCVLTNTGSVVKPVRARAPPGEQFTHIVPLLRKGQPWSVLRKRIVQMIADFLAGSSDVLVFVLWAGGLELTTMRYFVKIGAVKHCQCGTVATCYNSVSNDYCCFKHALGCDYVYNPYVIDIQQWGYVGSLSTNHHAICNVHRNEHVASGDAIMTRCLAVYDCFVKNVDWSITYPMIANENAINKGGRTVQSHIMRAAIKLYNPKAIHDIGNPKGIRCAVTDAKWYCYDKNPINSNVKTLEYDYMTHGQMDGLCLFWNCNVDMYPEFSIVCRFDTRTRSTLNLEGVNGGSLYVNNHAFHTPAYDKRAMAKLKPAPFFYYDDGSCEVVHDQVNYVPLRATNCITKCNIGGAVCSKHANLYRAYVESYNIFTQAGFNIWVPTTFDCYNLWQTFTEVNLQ
Chain of HCoV-NL63 nsp14 (P0C6X5 5568-6085): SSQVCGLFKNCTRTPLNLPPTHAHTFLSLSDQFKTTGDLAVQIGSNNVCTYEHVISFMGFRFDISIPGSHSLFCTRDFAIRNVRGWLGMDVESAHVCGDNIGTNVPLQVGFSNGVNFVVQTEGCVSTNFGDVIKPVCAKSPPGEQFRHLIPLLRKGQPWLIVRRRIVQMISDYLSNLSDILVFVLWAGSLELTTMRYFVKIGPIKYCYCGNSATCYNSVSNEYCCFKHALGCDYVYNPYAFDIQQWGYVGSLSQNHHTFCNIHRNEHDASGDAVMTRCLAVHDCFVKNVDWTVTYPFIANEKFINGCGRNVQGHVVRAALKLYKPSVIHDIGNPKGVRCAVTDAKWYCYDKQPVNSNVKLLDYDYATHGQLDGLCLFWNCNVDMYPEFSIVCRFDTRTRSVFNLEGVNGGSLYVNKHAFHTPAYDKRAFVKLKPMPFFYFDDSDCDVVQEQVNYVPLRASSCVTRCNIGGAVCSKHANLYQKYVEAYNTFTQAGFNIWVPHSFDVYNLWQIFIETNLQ
T4 sequence (K9N7C7 5909-6432 limits assumed): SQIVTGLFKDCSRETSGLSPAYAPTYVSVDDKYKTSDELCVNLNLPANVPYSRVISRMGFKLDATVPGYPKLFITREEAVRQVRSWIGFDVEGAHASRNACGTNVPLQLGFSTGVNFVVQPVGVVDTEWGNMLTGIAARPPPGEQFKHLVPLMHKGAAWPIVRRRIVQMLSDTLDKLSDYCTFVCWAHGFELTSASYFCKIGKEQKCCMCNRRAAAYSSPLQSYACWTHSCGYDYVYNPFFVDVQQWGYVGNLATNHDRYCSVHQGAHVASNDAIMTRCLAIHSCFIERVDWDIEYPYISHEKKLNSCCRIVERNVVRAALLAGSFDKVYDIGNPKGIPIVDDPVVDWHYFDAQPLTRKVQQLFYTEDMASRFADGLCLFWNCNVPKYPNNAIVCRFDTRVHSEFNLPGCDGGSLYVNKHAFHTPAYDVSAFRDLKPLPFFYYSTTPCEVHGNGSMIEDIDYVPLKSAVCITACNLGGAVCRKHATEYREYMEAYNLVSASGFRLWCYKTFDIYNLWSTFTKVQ

Cc1ccc2nc(SC[C@H]3O[C@@H](n4cnc5c(N)ncnc54)[C@H](O)[C@@H]3O)ccc2c1 [compound 8]
IC50 (SARS-CoV-2 nsp14): 1100 ± 70 nM | IC50 (HCoV-NL63 nsp14): 520 ± 10 nM | half-life (in vitro [1]): > 30 min | IC50 (HCoV-229E nsp14): 1900 ± 100 nM | IC50 (human RNMT [2]): > 100000 nM | logD (physchem [3]): 1.7

Cc1ccc2ccc(SC[C@H]3O[C@@H](n4cnc5c(N)ncnc54)[C@H](O)[C@@H]3O)nc2c1 [compound 9]
IC50 (SARS-CoV-2 nsp14): 390 ± 60 nM | IC50 (HCoV-NL63 nsp14): 500 ± 110 nM | half-life (in vitro [1]): > 30 min | IC50 (HCoV-229E nsp14): 1400 ± 100 nM | IC50 (human RNMT [2]): 70500 nM | logD (physchem [3]): 1.7

Nc1ncnc2c1ncn2[C@@H]1O[C@H](CSc2ccc3cccnc3c2)[C@@H](O)[C@H]1O [compound 10]
IC50 (SARS-CoV-2 nsp14; read-out: IC50): 360 ± 110 nM | IC50 (HCoV-NL63 nsp14; read-out: IC50): 170 ± 40 nM | half-life (in vitro [1]): > 30 min | IC50 (HCoV-229E nsp14; read-out: IC50): 580 ± 100 nM | IC50 (human RNMT [2]): > 100000 nM | logD (physchem [3]): 0.6

CNc1ncnc2c1ncn2[C@@H]1O[C@H](CSc2nc3ccccc3s2)[C@@H](O)[C@H]1O [compound 18]
IC50 (SARS-CoV-2 nsp14; read-out: IC50): 2100 ± 200 nM | logD (physchem [4]): 1.3

CN(C)c1ncnc2c1ncn2[C@@H]1O[C@H](CSc2nc3ccccc3s2)[C@@H](O)[C@H]1O [compound 19]
IC50 (SARS-CoV-2 nsp14; [13]): > 100000 nM | logD (physchem [4]): 1.8

OC1C(CSc2nc3ccccc3s2)OC(n2cnc3c(NC4CCCC4)ncnc32)C1O (stereo not drawn) [compound 20]
IC50 (SARS-CoV-2 nsp14; [13]): > 100000 nM | logD (physchem [4]): 2.5

CC(C)Nc1ncnc2c1ncn2[C@@H]1O[C@H](CSc2nc3ccccc3s2)[C@@H](O)[C@H]1O [compound 21]
IC50 (SARS-CoV-2 nsp14; read-out: IC50): > 100000 nM | logD (physchem [4]): 2.1 | IC50 (human RNMT [5]): > 100000 nM

O[C@@H]1[C@H](O)[C@@H](CSc2nc3ccccc3s2)O[C@H]1n1cnc2c(NC3COC3)ncnc21 [compound 22]
logD (physchem [4]): 1.4

Nc1ncnc2c1ncn2[C@@H]1O[C@H](COc2nc3ccccc3s2)[C@@H](O)[C@H]1O [compound 23]
IC50 (SARS-CoV-2 nsp14; read-out: IC50): > 100000 nM | logD (physchem [4]): 0.5 | IC50 (human RNMT [5]): > 100000 nM

Nc1ncnc2c1ncn2[C@@H]1O[C@H](CNc2nc3ccccc3s2)[C@@H](O)[C@H]1O [compound 24]
IC50 (SARS-CoV-2 nsp14; read-out: IC50): > 100000 nM | logD (physchem [4]): 0.7 | IC50 (human RNMT [2]): 54600 nM

Nc1ncnc2c1ncn2[C@@H]1O[C@H](CCc2nc3ccccc3s2)[C@@H](O)[C@H]1O [compound 25]
IC50 (SARS-CoV-2 nsp14; read-out: IC50): 310 ± 70 nM | logD (physchem [4]): 1 | IC50 (human RNMT [5]): > 100000 nM | half-life (in vitro [1]): > 30 min

Nc1ncnc2c1ncn2[C@@H]1C[C@H](CSc2nc3ccccc3s2)[C@@H](O)[C@H]1O [compound 26]
IC50 (SARS-CoV-2 nsp14; read-out: IC50): 53 ± 30 nM | logD (physchem [6]): 1.5 | IC50 (HCoV-NL63 nsp14; read-out: IC50): 8 ± 3 nM | half-life (in vitro [1]): > 30 min | IC50 (HCoV-229E nsp14; read-out: IC50): 21 ± 4 nM | IC50 (human RNMT [2]): > 100000 nM | IC50 (MERS-CoV nsp14): 730 nM

Nc1ncnc2c1ncn2[C@@H]1O[C@H](CNS(=O)(=O)c2ccc3ccccc3c2)[C@@H](O)[C@H]1O [compound 32, N-[[(2R,3S,4R,5R)-5-(6-Aminopurin-9-yl)-3,4-dihydroxy-tetrahydrofuran-2-yl]methyl]naphthalene-2-sulfonamide]
half-life (in vitro [1]): > 30 min | EC50 (SARS-CoV-2 [7]): > 100000 nM | CC50 (in vitro [8]): > 100000 nM | solubility (physchem [9]): 213 µM (≈ 97.2 µg/mL)

Nc1ncnc2c1ncn2[C@@H]1O[C@H](CNS(=O)(=O)c2ccc3ccccc3c2)[C@@H](O)[C@H]1O [compound 32]
Papp (in vitro [10]): 1.2 ×10⁻⁶ cm/s | IC50 (SARS-CoV-2 nsp14; read-out: IC50): 130 ± 40 nM | logD (physchem [6]): 1.5 | IC50 (HCoV-NL63 nsp14; read-out: IC50): 530 ± 120 nM | IC50 (HCoV-229E nsp14; read-out: IC50): 300 ± 10 nM | IC50 (human RNMT [2]): > 100000 nM

Nc1ncnc2c1ncn2[C@@H]1O[C@H](/C=C/c2nc3ccccc3s2)[C@@H](O)[C@H]1O [compound 33, (2R,3R,4S,5R)-2-(6-Aminopurin-9-yl)-5-[(E)-2-(1,3-benzothiazol-2-yl)vinyl]tetrahydrofuran-3,4-diol]
half-life (in vitro [1]): > 30 min | EC50 (SARS-CoV-2 [7]): 8700 nM | CC50 (in vitro [8]): 21000 nM | solubility (physchem [9]): 18.2 µM (≈ 7.22 µg/mL)

Nc1ncnc2c1ncn2[C@@H]1O[C@H](/C=C/c2nc3ccccc3s2)[C@@H](O)[C@H]1O [compound 33]
Papp (in vitro [10]): 4.9 ×10⁻⁶ cm/s | IC50 (SARS-CoV-2 nsp14; read-out: IC50): 36 ± 10 nM | logD (physchem [6]): 1.3 | IC50 (HCoV-NL63 nsp14; read-out: IC50): 17 ± 1 nM | IC50 (HCoV-229E nsp14; read-out: IC50): 51 ± 9 nM | IC50 (human RNMT [2]): > 100000 nM

Nc1ncnn2c([C@@H]3O[C@H](CNS(=O)(=O)c4ccc5ccccc5c4)[C@@H](O)[C@H]3O)ccc12 [compound 34, N-[[(2R,3S,4R,5S)-5-(4-Aminopyrrolo[2,1-f][1,2,4]triazin-7-yl)-3,4-dihydroxy-tetrahydrofuran-2-yl]methyl]naphthalene-2-sulfonamide]
EC50 (SARS-CoV-2 [11]): 30000 nM | half-life (in vitro [1]): 9.9 min | CC50 (in vitro [8]): > 100000 nM | solubility (physchem [9]): 226 µM (≈ 103 µg/mL)

Nc1ncnn2c([C@@H]3O[C@H](CNS(=O)(=O)c4ccc5ccccc5c4)[C@@H](O)[C@H]3O)ccc12 [compound 34]
IC50 (SARS-CoV-2 nsp14; read-out: IC50): 170 ± 30 nM | logD (physchem [6]): 1.6 | Papp (in vitro [12]): 1 ×10⁻⁶ cm/s | IC50 (HCoV-NL63 nsp14; read-out: IC50): 760 ± 310 nM | IC50 (HCoV-229E nsp14; read-out: IC50): 320 ± 10 nM | IC50 (human RNMT [2]): 27700 nM

Nc1ncnn2c([C@@H]3O[C@H](/C=C/c4nc5ccccc5s4)[C@@H](O)[C@H]3O)ccc12 [compound 40, (2S,3R,4S,5R)-2-(4-aminopyrrolo[2,1-f][1,2,4]triazin-7-yl)-5-[(E)-2-(1,3-benzothiazol-2-yl)vinyl]tetrahydrofuran-3,4-diol]
EC50 (SARS-CoV-2 [11]): > 10000 nM | half-life (in vitro [1]): > 30 min | CC50 (in vitro [8]): > 10000 nM | solubility (physchem [9]): 4.7 µM (≈ 1.86 µg/mL)

Nc1ncnn2c([C@@H]3O[C@H](/C=C/c4nc5ccccc5s4)[C@@H](O)[C@H]3O)ccc12 [compound 40]
IC50 (SARS-CoV-2 nsp14; read-out: IC50): 83 ± 100 nM | logD (physchem [6]): 1.5 | Papp (in vitro [12]): 12.8 ×10⁻⁶ cm/s | IC50 (HCoV-NL63 nsp14; read-out: IC50): 13 ± 6 nM | IC50 (HCoV-229E nsp14; read-out: IC50): 49 ± 1 nM
